Test results taken from patent US10231453B2, “5-substituted imidazole derivatives” (BAYER CROPSCIENCE AKTIENGESELLSCHAFT, priority 2015, dated 2019).
Read-outs that look alike come from different tables or passages of the source.

Columns and labels:
[1] = tested on: Botrytis cinerea; test: In vivo preventive test on Botrytis cinerea (grey mould) on gherkin, Examples B, Q1 and R2; settings: for pest or weed control at 500 ppm / pest or weed control at 100 ppm: Botrytis cinerea
[2] = tested on: Puccinia recondita; test: In vivo preventive test on Puccinia recondita (brown rust on wheat), Examples C and R3; settings: Puccinia recondita, 264 h; 500 ppm of active ingredient; wheat, preventive spray, evaluated 11 days after inoculation; read-out: efficacy
[3] = tested on: Septoria tritici; test: In vivo preventive test on Septoria tritici (leaf spot on wheat), Examples E, Q3 and R5; settings: Zymoseptoria tritici, 576 h, 500 ppm of active ingredient; wheat, preventive spray, evaluated 24 days after inoculation; read-out: efficacy
[4] = tested on: Uromyces appendiculatus; test: In vivo preventive test on Uromyces appendiculatus (bean rust), Examples G and R7; settings: 264 h, 500 ppm of active ingredient, bean, preventive spray, evaluated 11 days after inoculation, read-out: efficacy
[5] = tested on: Sphaerotheca fuliginea; test: In vivo preventive test on Sphaerotheca fuliginea (powdery mildew on cucurbits), Examples F and R6; settings: Podosphaera fuliginea, 360 h; 500 ppm of active ingredient; gherkin, preventive spray, evaluated 15 days after inoculation; read-out: efficacy
[6] = tested on: Pyrenophora teres; test: In vivo preventive test on Pyrenophora teres (net blotch on barley), Examples D, Q2 and R4; settings: Pyrenophora teres, 336 h, 500 ppm of active ingredient, preventive spray, evaluated 14 days after inoculation, read-out: efficacy
[7] = Measurement of LogP values by HPLC on reversed phase columns (EEC directive 79/831 Annex V.A8); format: physicochemical; settings: method [a]: LC-UV, acidic range, 0.1% formic acid in water and acetonitrile as eluent; Table 1
Experimental: Measurement of Log P values was performed as outlined above.

[8] = Example R2, rate of application 100 ppm
[9] = Example R2, rate of application 500 ppm
[10] = 500 ppm of active ingredient, preventive spray, evaluated 4 to 5 days after inoculation, read-out: efficacy
[11] = Example R2, rate of application 100 ppm, read-out: Efficacy in %
[12] = Example R2, rate of application 500 ppm, read-out: Efficacy in %

SMILES	Efficacy in % [1, 8]	Efficacy in % [1, 9]	pest or weed control at 500 ppm [2]	pest or weed control at 500 ppm [3]	pest or weed control at 500 ppm [4]	pest or weed control at 500 ppm [5]	pest or weed control at 500 ppm [6]	chromatographic logP [7]	pest or weed control at 500 ppm [1, 10]	pest or weed control at 100 ppm [1, 11]	pest or weed control at 500 ppm [1, 12]
OC(Cc1ccc(Cl)cc1F)(Cn1cnc(Br)c1)C1(Cl)CC1 (racemic) [drawing 79, reference compound]	0%	19%	–	–	–	–	–	–	–	–	–
N#Cc1cn(CC(O)(Cc2ccc(Cl)cc2F)C2(Cl)CC2)cn1 (racemic) [drawing 81, reference compound]	0%	0%	–	–	–	–	–	–	–	–	–
OC(Cc1ccc(Cl)cc1F)(Cn1cnc(Cl)c1)C1(Cl)CC1 (racemic) [drawing 83, reference compound]	0%	0%	–	–	–	–	–	–	–	–	–
OC(Cc1cccnc1Cl)(Cn1cncc1Cl)C1(Cl)CC1 (centres unmarked) [Example I-07]	–	–	80 to 89%	90 to 100%	90 to 100%	90 to 100%	70 to 79%	1.57	–	–	–
OC(Cc1ccccc1Cl)(Cn1cncc1I)C1(Cl)CC1 (centres unmarked) [Example I-14]	–	–	80 to 89%	90 to 100%	90 to 100%	90 to 100%	80 to 89%	2.14	90 to 100%	–	–
N#CCc1cncn1CC(O)(Cc1ccccc1Cl)C1(Cl)CC1 (centres unmarked) [Example I-21]	–	–	80 to 89%	70 to 79%	70 to 79%	90 to 100%	–	1.66	90 to 100%	–	–
N#Cc1cncn1CC(O)(Cc1cccc(Br)c1)C1(Cl)CC1 (centres unmarked) [Example I-45]	–	–	90 to 100%	90 to 100%	90 to 100%	90 to 100%	80 to 89%	–	80 to 89%	–	–
N#Cc1cncn1CC(O)(Cc1ccnc(Br)c1Br)C1(Cl)CC1 (centres unmarked) [Example I-48]	–	–	80 to 89%	90 to 100%	90 to 100%	90 to 100%	70 to 79%	–	–	–	–
Cc1ccc(CC(O)(Cn2cncc2C#N)C2(Cl)CC2)c(C)c1 (centres unmarked) [Example I-51]	–	–	90 to 100%	90 to 100%	80 to 89%	90 to 100%	90 to 100%	–	–	–	–
N#Cc1cncn1CC(O)(Cc1cc(Cl)ncc1Cl)C1(Cl)CC1 (centres unmarked) [Example I-56]	–	–	80 to 89%	90 to 100%	90 to 100%	90 to 100%	70 to 79%	2.62	–	–	–
Cc1cccc(CC(O)(Cn2cncc2C#N)C2(Cl)CC2)c1 (centres unmarked) [Example I-59]	–	–	80 to 89%	90 to 100%	90 to 100%	90 to 100%	–	–	90 to 100%	–	–
Cc1ccccc1CC(O)(Cn1cncc1Cl)C1(Cl)CC1 (centres unmarked) [Example I-71]	–	–	90 to 100%	90 to 100%	90 to 100%	90 to 100%	90 to 100%	2.33	90 to 100%	–	–
Cc1cccc(CC(O)(Cn2cncc2Cl)C2(Cl)CC2)c1 (centres unmarked) [Example I-73]	–	–	80 to 89%	80 to 89%	–	90 to 100%	80 to 89%	–	90 to 100%	–	–
Cc1ccc(CC(O)(Cn2cncc2Cl)C2(Cl)CC2)cc1 (centres unmarked) [Example I-76]	–	–	90 to 100%	90 to 100%	–	90 to 100%	90 to 100%	–	90 to 100%	–	–
OC(Cc1ccc(Cl)cc1)(Cn1cncc1Cl)C1(Cl)CC1 (centres unmarked) [Example I-77]	–	–	80 to 89%	90 to 100%	90 to 100%	90 to 100%	80 to 89%	–	90 to 100%	–	–
CC1(C(O)(Cc2ccccc2Cl)Cn2cncc2C#N)CC1 (centres unmarked) [Example I-79]	–	–	90 to 100%	90 to 100%	90 to 100%	90 to 100%	90 to 100%	2.87	90 to 100%	–	–
N#Cc1cncn1CC(O)(Cc1cccc(Cl)c1Cl)C1CCC1 (centres unmarked) [Example I-85]	–	–	90 to 100%	90 to 100%	90 to 100%	90 to 100%	80 to 89%	3.31	–	–	–
OC(Cc1ccccc1C(F)(F)F)(Cn1cncc1Cl)C1(Cl)CC1 (centres unmarked) [Example I-89]	–	–	80 to 89%	–	90 to 100%	90 to 100%	80 to 89%	2.62	–	–	–

SMILES	Efficacy in % [1, 8]	Efficacy in % [1, 9]	pest or weed control at 500 ppm [2]	pest or weed control at 500 ppm [3]	pest or weed control at 500 ppm [4]	pest or weed control at 500 ppm [5]	pest or weed control at 500 ppm [6]	chromatographic logP [7]	pest or weed control at 500 ppm [1, 10]	pest or weed control at 100 ppm [1, 11]	pest or weed control at 500 ppm [1, 12]
Cc1ccc(CC(O)(Cn2cncc2Cl)C2(Cl)CC2)c(F)c1 (centres unmarked) [Example I-108]	–	–	90 to 100%	90 to 100%	–	90 to 100%	90 to 100%	2.34	90 to 100%	–	–
N#Cc1cncn1CC(O)(Cc1ccc(Cl)cc1F)CC1CC1 (centres unmarked) [Example I-120]	–	–	90 to 100%	70 to 79%	90 to 100%	90 to 100%	70 to 79%	–	–	–	–
COC(Cc1ccc(Cl)cc1F)(Cn1cncc1C#N)C1CC1 (centres unmarked) [Example I-121]	–	–	80 to 89%	90 to 100%	90 to 100%	90 to 100%	70 to 79%	3.31	–	–	–
CC(C)C(O)(Cc1ccc(F)cc1F)Cn1cncc1C#N (centres unmarked) [Example I-128]	–	–	90 to 100%	90 to 100%	90 to 100%	90 to 100%	–	2.52	90 to 100%	–	–
N#Cc1cncn1CC(O)(Cc1ccccc1F)C1CCC1 (centres unmarked) [Example I-137]	–	–	80 to 89%	90 to 100%	90 to 100%	90 to 100%	–	2.46	70 to 79%	–	–
Cc1cccc(CC(O)(Cn2cncc2Cl)C2(Cl)CC2)c1F (centres unmarked) [Example I-143]	–	–	90 to 100%	90 to 100%	–	90 to 100%	70 to 79%	2.35	–	–	–
N#Cc1cncn1CC(O)(Cc1cccc(F)c1F)C1CCC1 (centres unmarked) [Example I-148]	–	–	90 to 100%	90 to 100%	90 to 100%	–	80 to 89%	2.57	–	–	–
CC(C)C(O)(Cc1cccc(F)c1F)Cn1cncc1C#N (centres unmarked) [Example I-149]	–	–	90 to 100%	80 to 89%	90 to 100%	90 to 100%	–	2.47	70 to 79%	–	–
N#Cc1cncn1CC(O)(Cc1cccc(F)c1F)CC1CC1 (centres unmarked) [Example I-151]	–	–	80 to 89%	90 to 100%	90 to 100%	90 to 100%	70 to 79%	2.66	–	–	–
N#Cc1cncn1CC(O)(Cc1ccccc1I)C1(Cl)CC1 (centres unmarked) [Example I-166]	–	–	90 to 100%	70 to 79%	90 to 100%	90 to 100%	80 to 89%	3.13	–	–	–
OC(Cc1ccccc1I)(Cn1cncc1Cl)C1(Cl)CC1 (centres unmarked) [Example I-167]	–	–	80 to 89%	–	90 to 100%	90 to 100%	80 to 89%	–	90 to 100%	–	–
OC(Cc1ccccc1Cl)(Cn1cnc(Br)c1)C1(Cl)CC1 (centres unmarked) [drawing 70, reference compound]	–	–	–	–	–	–	–	–	–	5%	0%
N#Cc1cn(CC(O)(Cc2ccccc2Cl)C2(Cl)CC2)cn1 (centres unmarked) [drawing 72, reference compound]	–	–	–	–	–	–	–	–	–	0%	0%
C#Cc1cn(CC(O)(Cc2ccccc2F)C2(Cl)CC2)cn1 (centres unmarked) [drawing 74, reference compound]	–	–	–	–	–	–	–	–	–	0%	0%
OC(Cc1ccccc1F)(Cn1cnc(Cl)c1)C1(Cl)CC1 (centres unmarked) [drawing 76, reference compound]	–	–	–	–	–	–	–	–	–	0%	0%
OC(Cc1ccccc1F)(Cn1ccnc1Cl)C1(Cl)CC1 (centres unmarked) [drawing 77, reference compound]	–	–	–	–	–	–	–	–	–	0%	0%
N#Cc1cn(CC(O)(Cc2ccccc2F)C2(Cl)CC2)cn1 (centres unmarked) [drawing 85, reference compound]	–	–	–	–	–	–	–	–	–	0%	0%
